Results reported in the supplement of paper PMC10307832.

Compound: C1=CC2=C(C=CC(=C2)C=C3C(=O)NC(=NCC4=CC=CS4)S3)N=C1 [RO-3306] + Cc1nc(Nc2ncc(C(=O)Nc3c(C)cccc3Cl)s2)cc(N2CCN(CCO)CC2)n1 [Dasatinib] (partner 0.075 µM)
Test: relative viability (nuclei count vs DMSO), 5 days (fraction); higher = more cells survive
Procedure, shortened: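 Lung cancer cell lines were pin-tool dosed in 1536-well plates on the day after seeding, with either a lone drug or a fixed anchor-drug dose plus five library-drug doses (not always all listed) in √10 steps. Nuclei were counted on 4× images after 5 days. Relative viability is the ratio of treated-well to vehicle-well nuclei counts, with each value a median of duplicate plates.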

| Cell Line | relative viability (first compound 0.01 µM) | relative viability (first compound 0.03162 µM) | relative viability (first compound 0.1 µM) | relative viability (first compound 0.3162 µM) | relative viability (first compound 1 µM) |
| --- | --- | --- | --- | --- | --- |
| 201T | 0.584 | 0.588 | 0.571 | 0.529 | 0.517 |
| A-427 | 0.739 | 0.565 | 0.644 | 0.631 | 0.551 |
| ABC-1 | 0.644 | 0.614 | 0.483 | 0.458 | 0.531 |
| BEN | 0.381 | 0.324 | 0.297 | 0.307 | 0.338 |
| CAL-12T | 0.394 | 0.279 | 0.345 | 0.372 | 0.356 |
| COR-L23 | 0.477 | 0.392 | 0.48 | 0.642 | 0.374 |
| COR-L 105 | 0.3 | 0.302 | 0.271 | 0.344 | 0.335 |
| ChaGo-K-1 | 0.63 | 0.624 | 0.569 | 0.622 | 0.349 |
| EKVX | 0.349 |  | 0.514 | 0.55 | 0.492 |
| EMC-BAC-2 | 0.337 | 0.522 | 0.329 | 0.326 | 0.304 |
| EPLC-272H | 0.365 | 0.193 | 0.384 | 0.237 | 0.299 |
| H3255 | 0.358 | 0.381 | 0.353 | 0.327 | 0.329 |
| HARA | 0.362 | 0.256 | 0.356 | 0.306 | 0.257 |
| HCC-15 | 0.594 | 0.554 | 0.59 | 0.534 | 0.574 |
| HCC-78 | 0.36 | 0.345 | 0.444 | 0.406 | 0.384 |
| HCC-366 | 0.794 | 0.565 | 0.677 | 0.668 | 0.652 |
| HCC-827 | 0.221 | 0.314 | 0.24 | 0.317 | 0.299 |
| HOP-62 | 0.709 | 0.516 | 0.633 | 0.757 | 0.504 |
| LC-2-ad | 0.57 | 0.311 | 0.582 | 0.533 | 0.507 |
| LCLC-97TM1 | 0.792 | 0.714 | 0.929 | 0.779 | 0.859 |
| LCLC-103H | 0.472 | 0.478 | 0.44 | 0.401 | 0.385 |
| LK-2 | 0.333 |  | 0.489 | 0.258 | 0.283 |
| LOU-NH91 | 0.617 | 0.496 | 0.513 | 0.57 | 0.5 |
| LU99A | 0.606 | 0.581 | 0.553 | 0.507 | 0.553 |

| Cell Line | relative viability (first compound 0.01 µM) | relative viability (first compound 0.03162 µM) | relative viability (first compound 0.1 µM) | relative viability (first compound 0.3162 µM) | relative viability (first compound 1 µM) |
| --- | --- | --- | --- | --- | --- |
| LXF-289 | 0.19 | 0.259 | 0.199 | 0.198 | 0.2 |
| NCI-H23 | 0.679 | 0.595 | 0.932 | 0.75 | 0.657 |
| NCI-H322M | 0.252 | 0.259 | 0.257 | 0.255 | 0.244 |
| NCI-H358 | 0.145 | 0.155 | 0.169 | 0.133 | 0.191 |
| NCI-H441 | 0.499 | 0.392 | 0.657 | 0.485 | 0.709 |
| NCI-H460 | 0.543 | 0.435 | 0.448 | 0.518 | 0.385 |
| NCI-H520 | 0.168 | 0.195 | 0.178 | 0.195 | 0.162 |
| NCI-H522 | 0.895 | 0.854 | 0.82 | 0.823 | 0.846 |
| NCI-H596 | 0.557 | 0.554 | 0.657 | 0.665 | 0.552 |
| NCI-H647 | 0.155 | 0.117 | 0.18 | 0.226 | 0.129 |
| NCI-H650 | 0.429 | 0.421 | 0.393 | 0.479 | 0.421 |
| NCI-H661 | 0.834 | 0.769 | 0.828 | 0.814 | 0.799 |
| NCI-H727 | 0.346 |  | 0.413 | 0.402 | 0.523 |
| NCI-H838 | 0.351 | 0.254 | 0.244 | 0.295 | 0.273 |
| NCI-H1355 | 0.673 |  | 0.683 | 0.703 | 0.504 |
| NCI-H1395 | 0.4 | 0.494 | 0.372 | 0.409 | 0.587 |
| NCI-H1437 | 0.428 | 0.288 | 0.283 | 0.405 | 0.461 |
| NCI-H1563 | 0.413 | 0.526 | 0.415 | 0.48 | 0.451 |
| NCI-H1623 | 0.474 | 0.504 | 0.525 | 0.555 | 0.52 |
| NCI-H1650 | 0.326 | 0.284 | 0.311 | 0.33 | 0.291 |
| NCI-H1651 | 0.383 | 0.329 | 0.382 | 0.418 | 0.354 |
| NCI-H1666 | 0.794 | 0.724 | 0.772 | 0.795 | 0.698 |
| NCI-H1734 | 0.442 | 0.476 | 0.444 | 0.473 | 0.443 |
| NCI-H1755 | 0.46 | 0.417 | 0.441 | 0.366 | 0.411 |

| Cell Line | relative viability (first compound 0.01 µM) | relative viability (first compound 0.03162 µM) | relative viability (first compound 0.1 µM) | relative viability (first compound 0.3162 µM) | relative viability (first compound 1 µM) |
| --- | --- | --- | --- | --- | --- |
| NCI-H1792 | 1.03 |  | 0.752 | 0.814 | 0.55 |
| NCI-H1793 | 0.341 | 0.345 | 0.324 | 0.451 | 0.353 |
| NCI-H1915 | 0.341 | 0.312 | 0.288 | 0.329 | 0.253 |
| NCI-H1944 | 0.209 | 0.212 | 0.206 | 0.223 | 0.217 |
| NCI-H1975 | 0.345 | 0.324 | 0.344 | 0.35 | 0.344 |
| NCI-H1993 | 0.754 | 0.49 | 0.695 | 0.586 | 0.523 |
| NCI-H2009 | 0.279 | 0.267 | 0.265 | 0.293 | 0.277 |
| NCI-H2023 | 0.742 | 0.47 | 0.496 | 0.598 | 0.518 |
| NCI-H2085 | 0.212 | 0.221 | 0.225 | 0.265 | 0.237 |
| NCI-H2087 | 1.01 | 0.541 | 0.914 | 0.869 | 1.04 |
| NCI-H2126 | 0.663 | 0.622 | 0.58 | 0.523 | 0.542 |
| NCI-H2170 | 0.492 | 0.585 | 0.57 | 0.621 | 0.456 |
| NCI-H2228 | 0.569 | 0.435 | 0.47 | 0.562 | 0.453 |
| NCI-H2342 | 0.37 | 0.306 | 0.319 | 0.289 | 0.303 |
| NCI-H2347 | 0.296 | 0.285 | 0.285 | 0.284 | 0.283 |
| NCI-H2405 | 0.199 | 0.493 | 0.173 | 0.225 | 0.463 |
| NCI-H3122 | 0.823 | 0.751 | 0.835 | 0.787 | 0.857 |
| PC-3 [JPC-3] | 1.02 | 0.799 | 0.953 | 0.991 | 0.819 |
| PC-14 | 0.239 | 0.359 | 0.232 | 0.243 | 0.212 |
| RERF-LC-KJ | 0.919 | 0.667 | 0.907 | 0.881 | 0.915 |
| SK-LU-1 | 0.14 | 0.177 | 0.18 | 0.198 | 0.151 |
| SK-MES-1 | 0.341 | 0.44 | 0.344 | 0.379 | 0.348 |
| SW 900 | 0.505 | 0.538 | 0.658 | 0.859 | 0.542 |
| SW 1573 | 0.455 |  | 0.466 | 0.497 | 0.429 |
